Results reported in patent US8476434B2, “Protein kinase modulators and method of use” (Amgen Inc., priority 2004, dated 2013).

molecular target: T1, LCK KD GST (225-509) (Homo sapiens, UniProt P06239); experiment: LCK Homogenous Time Resolved Fluorescent (HTRF) kinase assay; type: biochemical
T1 construct: LCK KD GST (225-509); GST
Method: The LCK HTRF assay begins with LCK in the presence of ATP phosphorylating the biotinylated peptide Gastrin. The reaction incubates for 90 min. To quench the assay detection reagents are added which both stop the reaction by diluting out the enzyme and chelating the metals due to the presence of EDTA. Once the detection reagents are added the assay incubates for 30 min to allow for equilibration of the detection reagents.
Buffer conditions are as follows: 50 mM HEPES pH 7.5, 50 mM NaCl, 20 mM MgCl, 5 mM MnCl, 2 mM DTT, 0.05% BSA.
The assay is quenched and stopped with 160 μL of detection reagent. Detection reagents are as follows: Buffer made of 50 mM Tris, pH 7.5, 100 mM NaCl, 3 mM EDTA, 0.05% BSA, 0.1% Tween20.
The assay plate is read in either a Discovery or a RubyStar.

T1 sequence (P06239 225-509): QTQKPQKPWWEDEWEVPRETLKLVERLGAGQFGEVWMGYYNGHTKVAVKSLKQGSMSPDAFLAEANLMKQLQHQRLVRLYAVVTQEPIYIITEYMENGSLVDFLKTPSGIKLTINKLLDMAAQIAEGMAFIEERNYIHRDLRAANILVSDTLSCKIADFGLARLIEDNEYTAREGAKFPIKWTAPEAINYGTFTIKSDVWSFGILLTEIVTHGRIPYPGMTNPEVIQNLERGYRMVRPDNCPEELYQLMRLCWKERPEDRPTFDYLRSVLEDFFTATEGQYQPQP

IC50, < 1 µM:
CNc1nccc(-c2cccnc2Oc2cc(C(=O)Nc3cc(C(F)(F)F)ccc3N(C)CCCN(C)C)ccc2C)n1 [N-(2-((3-(dimethylamino)propyl)(methyl)amino)-5-(trifluoromethyl)phenyl)-4-methyl-3-((3-(2-(methylamino)-4-pyrimidinyl)-2-pyridinyl)oxy)benzamide]
CNc1ncnc(-c2cccnc2Oc2ccc(F)c(C(=O)Nc3cc(C(C)C)ccc3N(C)CCCN(C)C)c2)n1 [N-(2-((3-(dimethylamino)propyl)(methyl)amino)-5-(1-methylethyl)phenyl)-2-fluoro-5-((3-(4-(methylamino)-1,3,5-triazin-2-yl)-2-pyridinyl)oxy)benzamide]
CNc1nccc(-c2cccnc2Oc2ccc(NC(=O)Nc3cc(C(F)(F)F)ccc3F)c3ccccc23)n1 [N-(2-fluoro-5-(trifluoromethyl)phenyl)-N′-(4-((3-(2-(methylamino)-4-pyrimidinyl)-2-pyridinyl)oxy)-1-naphthalenyl)urea]
CNc1ncnc(-c2cccnc2Oc2cc(C(=O)Nc3cccc(OCc4ccccc4)c3)ccc2C)n1 [4-methyl-3-((3-(4-(methylamino)-1,3,5-triazin-2-yl)-2-pyridinyl)oxy)-N-(3-((phenylmethyl)oxy)phenyl)benzamide]
COc1ccc(C2CCCCC2)cc1NC(=O)c1ccc(C)c(Oc2ncccc2-c2ncnc(NCCO)n2)c1 [N-(5-cyclohexyl-2-(methyloxy)phenyl)-3-((3-(4-((2-hydroxyethyl)amino)-1,3,5-triazin-2-yl)-2-pyridinyl)oxy)-4-methylbenzamide]
CNc1nccc(-c2cc(N3CCOCC3)cnc2Oc2cc(C(=O)Nc3cccc(C(C)C)c3)ccc2C)n1 [4-methyl-3-((3-(2-(methylamino)-4-pyrimidinyl)-5-(4-morpholinyl)-2-pyridinyl)oxy)-N-(3-(1-methylethyl)phenyl)benzamide]
Cc1ccc(C(=O)Nc2cccc(Cl)c2)cc1Nc1ncccc1-c1ccncn1 [N-(3-chlorophenyl)-4-methyl-3-((3-(4-pyrimidinyl)-2-pyridinyl)amino)benzamide]
CNc1nccc(-c2cccnc2Oc2ccc(NC(=O)Nc3cc(Cl)ccc3Cl)cc2C)n1 [N-(2,5-dichlorophenyl)-N′-(3-methyl-4-((3-(2-(methylamino)-4-pyrimidinyl)-2-pyridinyl)oxy)phenyl)urea]
CCN(CC)CCNc1nccc(-c2cccnc2Oc2cc(C(=O)Nc3cc(C(F)(F)F)ccc3N3CCOCC3)ccc2C)n1 [3-((3-(2-((2-(diethylamino)ethyl)amino)-4-pyrimidinyl)-2-pyridinyl)oxy)-4-methyl-N-(2-(4-morpholinyl)-5-(trifluoromethyl)phenyl)benzamide]
CNc1nccc(-c2cccnc2Oc2cc(NC(=O)c3cc(C(C)(C)C)ccc3OC)ccc2C)n1 [5-(1,1-dimethylethyl)-N-(4-methyl-3-((3-(2-(methylamino)-4-pyrimidinyl)-2-pyridinyl)oxy)phenyl)-2-(methyloxy)benzamide]
Cc1ccc(C(=O)Nc2cc(C(C)(C)C)nn2-c2ccccc2)cc1Oc1ncccc1-c1ccncn1 [N-(3-(1,1-dimethylethyl)-1-phenyl-1H-pyrazol-5-yl)-4-methyl-3-((3-(4-pyrimidinyl)-2-pyridinyl)oxy)benzamide]
CNc1ncnc(-c2cccnc2Oc2cc(C(=O)Nc3cc(C(C)(C)C)on3)ccc2C)n1 [N-(5-(1,1-dimethylethyl)-3-isoxazolyl)-4-methyl-3-((3-(4-(methylamino)-1,3,5-triazin-2-yl)-2-pyridinyl)oxy)benzamide]
CNc1ncnc(-c2cccnc2Oc2cccc(NC(=O)c3cccc(C(C)C)c3)c2)n1 [N-(3-((3-(4-(methylamino)-1,3,5-triazin-2-yl)-2-pyridinyl)oxy)phenyl)-3-(1-methylethyl)benzamide]
CNc1ncnc(-c2cccnc2Oc2cc(C(=O)Nc3cccc(C(C)C)c3)ccc2C)n1 [4-methyl-3-((3-(4-(methylamino)-1,3,5-triazin-2-yl)-2-pyridinyl)oxy)-N-(3-(1-methylethyl)phenyl)benzamide]
CNc1ncnc(-c2cccnc2Oc2ccc(F)c(C(=O)Nc3cccc(C(C)(C)C)c3)c2)n1 [N-(3-(1,1-dimethylethyl)phenyl)-2-fluoro-5-((3-(4-(methylamino)-1,3,5-triazin-2-yl)-2-pyridinyl)oxy)benzamide]
CNc1nccc(-c2cccnc2Oc2ccc(F)c(C(=O)Nc3cc(C4CC4)ccc3N(C)CCCN(C)C)c2)n1 [N-(5-cyclopropyl-2-((3-(dimethylamino)propyl)(methyl)amino)phenyl)-2-fluoro-5-((3-(2-(methylamino)-4-pyrimidinyl)-2-pyridinyl)oxy)benzamide]
CNc1ncnc(-c2cccnc2Oc2cc(C(=O)Nc3cccc(C(F)(F)F)c3)ccc2C)n1 [4-methyl-3-((3-(4-(methylamino)-1,3,5-triazin-2-yl)-2-pyridinyl)oxy)-N-(3-(trifluoromethyl)phenyl)benzamide]
CNc1nccc(-c2cc(N(C)CCCN(C)C)cnc2Oc2cc(C(=O)Nc3cccc(C(C)C)c3)ccc2C)n1 [3-((5-((3-(dimethylamino)propyl)(methyl)amino)-3-(2-(methylamino)-4-pyrimidinyl)-2-pyridinyl)oxy)-4-methyl-N-(3-(1-methylethyl)phenyl)benzamide]
CNc1nccc(-c2cccnc2Oc2ccc(NC(=O)Nc3cc(C(F)(F)F)ccc3OCCN3CCCC3)cc2C)n1 [N-(3-methyl-4-((3-(2-(methylamino)-4-pyrimidinyl)-2-pyridinyl)oxy)phenyl)-N′-(2-((2-(1-pyrrolidinyl)ethyl)oxy)-5-(trifluoromethyl)phenyl)urea]
COc1ccc(C(F)(F)F)cc1NC(=O)c1ccc(C)c(Oc2ncccc2-c2ccncn2)c1 [4-methyl-N-(2-(methyloxy)-5-(trifluoromethyl)phenyl)-3-((3-(4-pyrimidinyl)-2-pyridinyl)oxy)benzamide]
CNc1ncnc(-c2cccnc2Oc2ccc(NC(=O)Nc3cc(C(F)(F)F)ccc3CN3CC[C@@H](N(C)C)C3)c3ccccc23)n1 [N-(2-(((3R)-3-(dimethylamino)-1-pyrrolidinyl)methyl)-5-(trifluoromethyl)phenyl)-N′-(4-((3-(4-(methylamino)-1,3,5-triazin-2-yl)-2-pyridinyl)oxy)-1-naphthalenyl)urea]
CNc1nccc(-c2cccnc2Oc2ccc(F)c(C(=O)Nc3cc(C(F)(F)F)cc(Cl)c3N(C)CCCN(C)C)c2)n1 [N-(3-chloro-2-((3-(dimethylamino)propyl)(methyl)amino)-5-(trifluoromethyl)phenyl)-2-fluoro-5-((3-(2-(methylamino)-4-pyrimidinyl)-2-pyridinyl)oxy)benzamide]
CNc1nccc(-c2cccnc2Oc2ccc(NC(=O)Nc3cc(C(C)(C)C)ccc3OC)cc2C)n1 [N-(5-(1,1-dimethylethyl)-2-(methyloxy)phenyl)-N′-(3-methyl-4-((3-(2-(methylamino)-4-pyrimidinyl)-2-pyridinyl)oxy)phenyl)urea]
Cc1ccc(C(=O)Nc2cc(C(F)(F)F)ccc2Cl)cc1Oc1ncccc1-c1ccncn1 [N-(2-chloro-5-(trifluoromethyl)phenyl)-4-methyl-3-((3-(4-pyrimidinyl)-2-pyridinyl)oxy)benzamide]
CNc1nccc(-c2cccnc2Oc2ccc(NC(=O)Nc3cc(C(F)(F)F)ccc3Cl)cc2C)n1 [N-(2-chloro-5-(trifluoromethyl)phenyl)-N′-(3-methyl-4-((3-(2-(methylamino)-4-pyrimidinyl)-2-pyridinyl)oxy)phenyl)urea]
C#Cc1ccc(N(C)CCCN(C)C)c(NC(=O)c2cc(Oc3ncccc3-c3ccnc(NC)n3)ccc2F)c1 [N-(2-((3-(dimethylamino)propyl)(methyl)amino)-5-ethynylphenyl)-2-fluoro-5-((3-(2-(methylamino)-4-pyrimidinyl)-2-pyridinyl)oxy)benzamide]
COc1cc(-c2cccnc2Oc2cc(C(=O)Nc3cccc(C(F)(F)F)c3)ccc2C)ccn1 [4-methyl-3-((2′-(methyloxy)-3,4′-bipyridin-2-yl)oxy)-N-(3-(trifluoromethyl)phenyl)benzamide]
CNc1nccc(-c2cccnc2Oc2ccc(NC(=O)Nc3cc(F)cc(C(F)(F)F)c3)cc2C)n1 [N-(3-fluoro-5-(trifluoromethyl)phenyl)-N′-(3-methyl-4-((3-(2-(methylamino)-4-pyrimidinyl)-2-pyridinyl)oxy)phenyl)urea]
CNc1nccc(-c2cccnc2Oc2cc(C(=O)Nc3ccc(C(C)C)cc3)ccc2C)n1 [4-methyl-3-((3-(2-(methylamino)-4-pyrimidinyl)-2-pyridinyl)oxy)-N-(4-(1-methylethyl)phenyl)benzamide]
CNc1nccc(-c2cccnc2Oc2ccc(NC(=O)Nc3cccc(Br)c3)cc2C)n1 [N-(3-bromophenyl)-N′-(3-methyl-4-((3-(2-(methylamino)-4-pyrimidinyl)-2-pyridinyl)oxy)phenyl)urea]
Cc1ccc(C(=O)Nc2ccc(C(F)(F)F)cc2)cc1Nc1ncccc1-c1ccncn1 [4-methyl-3-((3-(4-pyrimidinyl)-2-pyridinyl)amino)-N-(4-(trifluoromethyl)phenyl)benzamide]
